How the values were obtained:
[1] = molecular target: human IRE-1α (GST-IRE-1α) (Homo sapiens (Human), UniProt O75460); experiment: IRE-1α assay (cleavage of mini-XBP-1 mRNA stem-loop substrate); type: biochemical; conditions: average IC50 for inhibition of IRE-1α in vitro
Protocol: A fusion protein comprising glutathione S transferase (GST) and human IRE-1α (GST-IRE-1α) obtained from a 500 ml baculovirus-infected insect cell culture can be used to measure IRE-1α activity in vitro. Five μl of a reaction mixture comprising 1× reaction buffer (5× reaction buffer is 100 mM Hepes pH 7.5, 250 mM KOAc, 2.5 mM MgCl2), 3 mM DTT, and 0.4% polyethylene glycol water is added to each well of 384 well plates. Twenty-five nanoliters of a 1 mM test compound solution are added to test wells. […] Negative control wells contain only reaction mixture and test compound. After spinning the plates at 1200 rpm for 30 seconds, 3 μl of an IRE-1α human mini-XBP-1 mRNA stem-loop substrate [NT] ID NO:1), labeled with the fluorescent dye Cy5 at the [NT] end, are added to each well of a control plate. The plates are again spun at 1200 rpm for 30 seconds. […] The plates are covered with lids and incubated for one hour at 30° C. The plates are then transferred to an […] microplate reader. Data is analyzed using data analysis software, and the percent activity of IRE-1α is calculated.

[2] = tested on: IRE-1α-mediated XBP-1 splicing in human myeloma MM.1s cells; experiment: Cellular XBP-1 splicing assay in myeloma cells (RT-PCR); type: cell-based; conditions: Homo sapiens, MM1.S; average EC50, endogenous XBP-1 splicing in myeloma cells, DTT stress
Protocol: After an additional 45 minutes (2 hours total) with compound and DTT, the cells are harvested with TRIZOL® (a mono-phasic solution of phenol and guanidine isothiocyanate), and total RNA is prepared as directed by the manufacturer (Invitrogen). Human XBP-1 is amplified by RT-PCR with the following primers, which flank the 26 base unconventional intron excised by IRE-1α:
RT-PCR of unstressed (U) cells then generates the upper band. When cells are stressed (S) with the endoplasmic reticulum (ER) stressing agent DTT, IRE-1α is activated due to accumulating unfolded protein and the resulting RT-PCR product is 26 base pairs shorter.
Compounds which pass specificity assays are assayed for cellular EC50 using endogenous XBP-1 splicing in myeloma cells. XBP-1 is regulated through the excision of a 26 nucleotide intron from the XBP-1 mRNA by the highly specific endoribonuclease activity of IRE-1α. […] This splicing event is used to measure IRE-1α activity on XBP-1 mRNA in cells and tissues.
Briefly, compounds are incubated in the presence or absence of an ER stress agent (e.g., DTT), and the ratio of XBP-1u (unspliced) to XBP-1s (spliced) is quantified by RT-PCR.

human IRE-1α (GST-IRE-1α), sequence (O75460 19-977): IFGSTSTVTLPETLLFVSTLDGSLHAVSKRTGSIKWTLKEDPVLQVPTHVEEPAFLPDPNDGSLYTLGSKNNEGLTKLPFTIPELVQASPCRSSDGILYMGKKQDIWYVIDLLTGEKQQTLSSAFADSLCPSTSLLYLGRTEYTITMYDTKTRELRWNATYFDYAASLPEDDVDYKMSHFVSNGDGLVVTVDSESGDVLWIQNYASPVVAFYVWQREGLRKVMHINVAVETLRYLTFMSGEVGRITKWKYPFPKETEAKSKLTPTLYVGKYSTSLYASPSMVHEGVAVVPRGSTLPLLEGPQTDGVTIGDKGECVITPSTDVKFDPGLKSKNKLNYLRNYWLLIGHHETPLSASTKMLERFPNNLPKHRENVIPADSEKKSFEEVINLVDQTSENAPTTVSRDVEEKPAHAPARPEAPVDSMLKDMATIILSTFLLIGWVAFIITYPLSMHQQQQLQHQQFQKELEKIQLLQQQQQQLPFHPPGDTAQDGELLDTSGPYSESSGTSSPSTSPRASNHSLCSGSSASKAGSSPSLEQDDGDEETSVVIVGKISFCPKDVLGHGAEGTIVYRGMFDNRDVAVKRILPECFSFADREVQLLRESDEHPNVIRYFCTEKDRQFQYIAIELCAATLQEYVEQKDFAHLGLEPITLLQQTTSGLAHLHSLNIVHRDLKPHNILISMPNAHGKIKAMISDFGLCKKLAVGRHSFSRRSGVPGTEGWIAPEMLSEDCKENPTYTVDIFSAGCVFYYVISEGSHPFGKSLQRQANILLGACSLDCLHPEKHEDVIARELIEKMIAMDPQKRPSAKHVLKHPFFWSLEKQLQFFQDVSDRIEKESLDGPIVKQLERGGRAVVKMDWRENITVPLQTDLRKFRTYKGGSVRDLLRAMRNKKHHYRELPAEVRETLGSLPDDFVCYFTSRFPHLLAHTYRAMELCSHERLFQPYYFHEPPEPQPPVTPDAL

| SMILES | IC50 [1] | EC50 [2] |
| --- | --- | --- |
| O=Cc1c(O)ccc2cc(N3CCCC3)ccc12 [Compound 59] | > 1000 nM | > 10000 nM |
| CSc1ncc(-c2ccc3c(C=O)c(O)ccc3c2)cn1 [Compound 64] | > 1000 nM | > 10000 nM |
| Cc1nc(-c2ccc3c(C=O)c(O)ccc3c2)sc1C(=O)N1CCN(C)CC1 [Compound 65] | < 100 nM | < 10000 nM |
| O=Cc1c(O)ccc2cc(-c3ccc(C(=O)NCC4CCCCN4)o3)ccc12 (stereo not drawn) [Compound 77] | > 1000 nM | < 10000 nM |
| O=Cc1c(O)ccc2cc(N3CCN(c4ccccn4)CC3)ccc12 [Compound 81] | > 1000 nM | > 10000 nM |
| CN1CCN(c2ccc3ccc(O)c(C=O)c3c2)CC1 [Compound 87] | > 1000 nM | > 10000 nM |
| O=Cc1c(O)ccc2ccc(N3CCOCC3)cc12 [Compound 88] | > 1000 nM | < 10000 nM |
| CN1CCN(C2CCN(c3ccc4ccc(O)c(C=O)c4c3)CC2)CC1 [Compound 89] | > 1000 nM | > 10000 nM |
| O=Cc1c(O)ccc2ccc(N3CCC(N4CCOCC4)CC3)cc12 [Compound 90] | > 1000 nM | < 10000 nM |
| CN1CCN(C(=O)C2CCN(c3ccc4c(C=O)c(O)ccc4c3)CC2)CC1 [Compound 91] | > 1000 nM | > 10000 nM |
| CS(=O)(=O)N1CCN(c2ccc3c(C=O)c(O)ccc3c2)CC1 [Compound 92, 2-Hydroxy-6-(4-methanesulfonyl-piperazin-1-yl)-naphthalene-1-carbaldehyde] | > 1000 nM | > 10000 nM |
| CS(=O)(=O)NC1CCN(c2ccc3c(C=O)c(O)ccc3c2)CC1 [Compound 93] | > 1000 nM | < 10000 nM |
| CS(=O)(=O)NC1CCCN(c2ccc3c(C=O)c(O)ccc3c2)C1 (stereo not drawn) [Compound 94] | > 1000 nM | > 10000 nM |
| O=Cc1c(O)ccc2cc(N3CCN(Cc4ccccc4)CC3)ccc12 [Compound 95] | > 1000 nM | > 10000 nM |
| O=Cc1c(O)ccc2cc(N3CCN(Cc4ccccn4)CC3)ccc12 [Compound 96, 2-Hydroxy-6-(4-pyridin-2-ylmethyl-piperazin-1-yl)-naphthalene-1-carbaldehyde] | 1000 nM | > 10000 nM |
| O=Cc1c(O)ccc2cc(N3CCCC(NCc4ccccc4)C3)ccc12 (stereo not drawn) [Compound 98] | 1000 nM | < 10000 nM |
| CC(C)N1CCN(c2ccc3c(C=O)c(O)ccc3c2)CC1 [Compound 99] | > 1000 nM | < 10000 nM |
| O=Cc1c(O)ccc2cc(N3CCN(c4cccnc4)CC3)ccc12 [Compound 103] | > 1000 nM | > 10000 nM |
| O=Cc1c(O)ccc2ccc(N3CCCC3)cc12 [Compound 104] | > 1000 nM | > 10000 nM |
| CN(C)C1CCN(c2ccc3c(C=O)c(O)ccc3c2)C1 (stereo not drawn) [Compound 106] | > 1000 nM | > 10000 nM |
| O=Cc1c(O)ccc2cc(N3CCC(N4CCOCC4)C3)ccc12 (stereo not drawn) [Compound 107] | > 1000 nM | > 10000 nM |
| O=Cc1c(O)ccc2cc(N3CCCC(NCc4ccccn4)C3)ccc12 (stereo not drawn) [Compound 108] | > 1000 nM | > 10000 nM |
| O=Cc1c(O)ccc2cc(N3CCN(C4CCNCC4)CC3)ccc12 [Compound 113] | > 1000 nM | > 10000 nM |
| O=Cc1c(O)ccc2cc(N3CCC(NCc4cccnc4)CC3)ccc12 [Compound 116] | > 1000 nM | < 10000 nM |
| CN1CCN(C2CCN(c3ccc4c(C=O)c(O)ccc4c3)C2)CC1 (stereo not drawn) [Compound 118] | > 1000 nM | < 10000 nM |
| CNC1CCN(c2ccc3c(C=O)c(O)ccc3c2)C1 (stereo not drawn) [Compound 122] | > 1000 nM | < 10000 nM |
| O=Cc1c(O)ccc2cc(-c3ccc(C(=O)N4CCCC4)nc3)ccc12 [Compound 124] | < 1000 nM | < 10000 nM |

Other lines, results leading:

| IC50 [1] | EC50 [2] | SMILES |
| --- | --- | --- |
| < 100 nM | < 10000 nM | CN1CCN(C(=O)c2csc(-c3ccc4c(C=O)c(O)ccc4c3)n2)CC1 [Compound 60] |
| < 100 nM | < 10000 nM | CN1CCN(C(=O)c2cnc(-c3ccc4c(C=O)c(O)ccc4c3)s2)CC1 [Compound 61] |
| < 100 nM | < 10000 nM | CN1CCCCC1CNC(=O)c1ccc(-c2ccc3c(C=O)c(O)ccc3c2)s1 (stereo not drawn) [Compound 62] |
| < 1000 nM | < 10000 nM | CN1CCN(C(=O)/C=C/c2ccc3c(C=O)c(O)ccc3c2)CC1 [Compound 63] |
| < 1000 nM | < 10000 nM | CN1CCN(C(=O)c2cc(-c3ccc4c(C=O)c(O)ccc4c3)ccn2)CC1 [Compound 66] |
| < 1000 nM | < 10000 nM | CN1CCN(C(=O)c2cncc(-c3ccc4c(C=O)c(O)ccc4c3)c2)CC1 [Compound 67] |
| < 100 nM | < 10000 nM | CN1CCCC(CNC(=O)c2ccc(-c3ccc4c(C=O)c(O)ccc4c3)s2)C1 (stereo not drawn) [Compound 69] |
| < 100 nM | < 10000 nM | O=Cc1c(O)ccc2cc(-c3ccc(C(=O)NCCN4CCOCC4)o3)ccc12 [Compound 71] |
| < 100 nM | < 10000 nM | CN(C)CCNC(=O)c1ccc(-c2ccc3c(C=O)c(O)ccc3c2)s1 [Compound 72] |
| < 100 nM | < 10000 nM | O=Cc1c(O)ccc2cc(-c3ccc(C(=O)NC4CCNC4)s3)ccc12 (stereo not drawn) [Compound 73] |
| < 1000 nM | > 10000 nM | CN(C)CCCNC(=O)c1ccc(-c2ccc3c(C=O)c(O)ccc3c2)s1 [Compound 74] |
| < 100 nM | < 10000 nM | O=Cc1c(O)ccc2cc(-c3ccc(C(=O)N4CC5CC4CN5)s3)ccc12 (stereo not drawn) [Compound 75] |
| < 1000 nM | < 10000 nM | CN1CCN(C(=O)c2coc(-c3ccc4c(C=O)c(O)ccc4c3)n2)CC1 [Compound 76] |
| < 100 nM | < 10000 nM | CN1CCCC(NC(=O)c2ccc(-c3ccc4c(C=O)c(O)ccc4c3)s2)C1 (stereo not drawn) [Compound 78] |
| < 100 nM | < 10000 nM | CN1CCC(NC(=O)c2ccc(-c3ccc4c(C=O)c(O)ccc4c3)s2)C1 (stereo not drawn) [Compound 79] |
| < 100 nM | < 10000 nM | CN1CCN(c2ncc(-c3ccc4c(C=O)c(O)ccc4c3)cn2)CC1 [Compound 80] |
| < 1000 nM | < 10000 nM | O=Cc1c(O)ccc2cc(N3CCC(N4CCOCC4)CC3)ccc12 [Compound 82] |

| IC50 [1] | EC50 [2] | SMILES |
| --- | --- | --- |
| < 1000 nM | > 10000 nM | CC(=O)N1CCN(c2ccc3c(C=O)c(O)ccc3c2)CC1 [Compound 83] |
| < 1000 nM | > 10000 nM | CC(=O)NC1CCN(c2ccc3c(C=O)c(O)ccc3c2)CC1 [Compound 84] |
| < 10 nM | < 10000 nM | CN(C)C1CCN(c2ccc3c(C=O)c(O)ccc3c2)CC1 [Compound 85] |
| < 10 nM | < 10000 nM | CN1CCN(C2CCN(c3ccc4c(C=O)c(O)ccc4c3)CC2)CC1 [Compound 86] |
| < 1000 nM | > 10000 nM | O=Cc1c(O)ccc2cc(N3CCC(NCc4ccccc4)CC3)ccc12 [Compound 97] |
| < 1000 nM | > 10000 nM | O=Cc1c(O)ccc2cc(N3CCN(Cc4cccnc4)CC3)ccc12 [Compound 100] |
| < 1000 nM | > 10000 nM | O=Cc1c(O)ccc2cc(-c3ccc(C(=O)N4CCOCC4)cn3)ccc12 [Compound 101] |
| < 1000 nM | < 10000 nM | COCc1cn(-c2ccc3c(C=O)c(O)ccc3c2)nn1 [Compound 105] |
| < 100 nM | < 10000 nM | Cc1nc(-c2ccc3c(C=O)c(O)ccc3c2)sc1C(=O)N1CCOCC1 [Compound 109] |
| < 1000 nM | > 10000 nM | O=Cc1c(O)ccc2cc(N3CCC(C(=O)N4CCOCC4)CC3)ccc12 [Compound 110] |
| < 1000 nM | > 10000 nM | O=Cc1c(O)ccc2cc(N3CCC(C(=O)N4CCOCC4)C3)ccc12 (stereo not drawn) [Compound 111, 2-Hydroxy-6-[3-(morpholine-4-carbonyl)-pyrrolidin-1-yl]-naphthalene-1-carbaldehyde] |
| < 1000 nM | < 10000 nM | CN1CCN(C(=O)C2CCN(c3ccc4c(C=O)c(O)ccc4c3)C2)CC1 (stereo not drawn) [Compound 112] |
| < 1000 nM | > 10000 nM | O=Cc1c(O)ccc2cc(N3CCC(NCc4ccccn4)CC3)ccc12 [Compound 114] |
| < 1000 nM | < 10000 nM | O=Cc1c(O)ccc2cc(N3CCC(N4CCCCC4)C3)ccc12 (stereo not drawn) [Compound 117] |
| < 1000 nM | 10000 nM | CN1CCN(c2nc(-c3ccc4c(C=O)c(O)ccc4c3)cs2)CC1 [Compound 120] |
| < 100 nM | < 10000 nM | CN1CCN(c2ncc(-c3ccc4c(C=O)c(O)ccc4c3)s2)CC1 [Compound 121] |
